Measurements: patent US20260085077A1, “HETEROCYCLIC DERIVATIVES AS JANUS KINASE INHIBITORS” (CHIESI FARMACEUTICI S.P.A., priority 2022, published 2026)

system: IL-13 induced pSTAT6 in BEAS-2B human cell line; assay: Inhibition of IL-13 induced pSTAT6 in BEAS; assay type: cell-based; details: IL-13 induced pSTAT6, BEAS-2B cells, ELISA
Description: BEAS-2B human cell line was seeded (100.000 cells/well) and incubated for 48 h at 37° C., 5% CO2, 95% humidity. Compounds were added and incubated 30 min followed by IL-13 as trigger. After 30 min incubation, cells were lysed and pSTAT6 determined by Fastscan phospho-stat6 (Tyr641) sandwich ELISA kit (cell signaling). Inhibitors were tested at 11 consecutive […] dilutions starting from 10 μM (10 μM-40 pM) in duplicate. Calculation of IC50 data, curves and QC analysis were made using Excel tools and GraphPadPrism software. QC criteria parameters: Z′≥0.35, Hill Slope range 0.5 to 5, S:B>2.

Row | SMILES | IC50 [µM]
1 | COc1cc2c(cc1-n1nc(C)c3cnc(-c4cnn5cccnc45)cc31)CCCN2 [Example 42, 7-methoxy-6-(3-methyl-6-(pyrazolo[1,5-a]pyrimidin-3-yl)-1H-pyrazolo[4,3-c]pyridin-1-yl)-1,2,3,4-tetrahydroquinoline] | < 0.00501
2 | COc1cc2c(cc1-n1nc(C(=O)NCCN3CCC(C(=O)N(C)C)CC3)c3cnc(-c4cnn5cccnc45)cc31)OCCN2 [Example 53, N-(2-(4-(dimethylcarbamoyl)piperidin-1-yl)ethyl)-1-(6-methoxy-3,4-dihydro-2H-benzo[b][1,4]oxazin-7-yl)-6-(pyrazolo[1,5-a]pyrimidin-3-yl)-1H-pyrazolo[4,3-c]pyridine-3-carboxamide] | 0.00501 to 0.0501
3 | CNc1nn(-c2cc3c(cc2OC)NCCO3)c2cc(-c3cnn4cccnc34)ncc12 [Example 55, 1-(6-methoxy-3,4-dihydro-2H-benzo[b][1,4]oxazin-7-yl)-N-methyl-6-(pyrazolo[1,5-a]pyrimidin-3-yl)-1H-pyrazolo[4,3-c]pyridin-3-amine] | 0.00501 to 0.0501
4 | COc1cc2c(cc1-n1nc(C)c3cnc(-c4cnn5cccnc45)cc31)C1(CC1)C(=O)N2 [Example 71, 6′-methoxy-5′-(3-methyl-6-(pyrazolo[1,5-a]pyrimidin-3-yl)-1H-pyrazolo[4,3-c]pyridin-1-yl)spiro[cyclopropane-1,3′-indolin]-2′-one] | 0.00501 to 0.0501
5 | COc1cc2c(cc1-n1nc(NC(=O)OCCN(C)C)c3cnc(-c4cnn5cccnc45)cc31)CCCN2 [Example 69, 2-(dimethylamino)ethyl (1-(7-methoxy-1,2,3,4-tetrahydroquinolin-6-yl)-6-(pyrazolo[1,5-a]pyrimidin-3-yl)-1H-pyrazolo[4,3-c]pyridin-3-yl)carbamate] | 0.00501 to 0.0501
6 | COc1cc2c(cc1-n1nc(NC(=O)OCCN3CCOCC3)c3cnc(-c4cnn5cccnc45)cc31)OCCN2 [Example 58, 2-morpholinoethyl (1-(6-methoxy-3,4-dihydro-2H-benzo[b][1,4]oxazin-7-yl)-6-(pyrazolo[1,5-a]pyrimidin-3-yl)-1H-pyrazolo[4,3-c]pyridin-3-yl)carbamate] | 0.00501 to 0.0501
7 | COc1cc2c(cc1-n1nc(NC(=O)OCCSC3CCOC3=O)c3cnc(-c4cnn5cccnc45)cc31)OCCN2 (centres unmarked) [Example 67, 2-((2-oxotetrahydrofuran-3-yl)thio)ethyl (1-(6-methoxy-3,4-dihydro-2H-benzo[b][1,4]oxazin-7-yl)-6-(pyrazolo[1,5-a]pyrimidin-3-yl)-1H-pyrazolo[4,3-c]pyridin-3-yl)carbamate] | 0.00501 to 0.0501
8 | COc1cc2c(cc1-n1nc(C(=O)NCCCN(C)C)c3cnc(-c4cnc5cccnn45)cc31)OCCN2 [Example 73, N-(3-(dimethylamino)propyl)-6-(imidazo[1,2-b]pyridazin-3-yl)-1-(6-methoxy-3,4-dihydro-2H-benzo[b][1,4]oxazin-7-yl)-1H-pyrazolo[4,3-c]pyridine-3-carboxamide] | 0.00501 to 0.0501
9 | COc1cc2c(cc1-n1nc(C(=O)NCCN3CC[C@@H](C(N)=O)C3)c3cnc(-c4cnn5cccnc45)cc31)OCCN2 [Example 80, (R)-N-(2-(3-carbamoylpyrrolidin-1-yl)ethyl)-1-(6-methoxy-3,4-dihydro-2H-benzo[b][1,4]oxazin-7-yl)-6-(pyrazolo[1,5-a]pyrimidin-3-yl)-1H-pyrazolo[4,3-c]pyridine-3-carboxamide] | 0.0501 to 0.501
10 | COc1cc2c(cc1-n1nc(NCCN(C)C)c3cnc(-c4cnn5cccnc45)cc31)SCC(=O)N2 [Example 38, 7-(3-((2-(dimethylamino)ethyl)amino)-6-(pyrazolo[1,5-a]pyrimidin-3-yl)-1H-pyrazolo[4,3-c]pyridin-1-yl)-6-methoxy-2H-benzo[b][1,4]thiazin-3(4H)-one] | 0.00501 to 0.0501
11 | COc1cc2c(cc1-n1nc(C(=O)NCCCN(C)C)c3cnc(Nc4ncc[nH]c4=O)cc31)OCCN2 [Example 75, N-(3-(dimethylamino)propyl)-1-(6-methoxy-3,4-dihydro-2H-benzo[b][1,4]oxazin-7-yl)-6-((3-oxo-3,4-dihydropyrazin-2-yl)amino)-1H-pyrazolo[4,3-c]pyridine-3-carboxamide] | 0.0501 to 0.501
12 | COc1cc2c(cc1-n1nc(NC(=O)OCC3(N(C)C)CCOCC3)c3cnc(-c4cnn5cccnc45)cc31)SCCN2 [Example 34, (4-(dimethylamino)tetrahydro-2H-pyran-4-yl)methyl (1-(6-methoxy-3,4-dihydro-2H-benzo[b][1,4]thiazin-7-yl)-6-(pyrazolo[1,5-a]pyrimidin-3-yl)-1H-pyrazolo[4,3-c]pyridin-3-yl)carbamate] | 0.00501 to 0.0501
13 | COc1cc2c(cc1-n1nc(NC(=O)OCCCN3CCN(C)CC3)c3cnc(-c4cnn5cccnc45)cc31)SCCN2 [Example 30, 3-(4-methylpiperazin-1-yl)propyl (1-(6-methoxy-3,4-dihydro-2H-benzo[b][1,4]thiazin-7-yl)-6-(pyrazolo[1,5-a]pyrimidin-3-yl)-1H-pyrazolo[4,3-c]pyridin-3-yl)carbamate] | 0.00501 to 0.0501
14 | COc1cc2c(cc1-n1nc(C(=O)NCCCN3CCC(F)(F)CC3)c3cnc(-c4cnn5cccnc45)cc31)OCCN2 [Example 14, N-(3-(4,4-difluoropiperidin-1-yl)propyl)-1-(6-methoxy-3,4-dihydro-2H-benzo[b][1,4]oxazin-7-yl)-6-(pyrazolo[1,5-a]pyrimidin-3-yl)-1H-pyrazolo[4,3-c]pyridine-3-carboxamide] | 0.00501 to 0.0501
15 | COc1cc2c(cc1-n1nc(NC(=O)OCCN3CCSCC3)c3cnc(-c4cnn5cccnc45)cc31)OCCN2 [Example 64, 2-thiomorpholinoethyl (1-(6-methoxy-3,4-dihydro-2H-benzo[b][1,4]oxazin-7-yl)-6-(pyrazolo[1,5-a]pyrimidin-3-yl)-1H-pyrazolo[4,3-c]pyridin-3-yl)carbamate] | 0.00501 to 0.0501
16 | COc1cc2c(cc1-n1nc(NC(=O)C3CCN(C)CC3)c3cnc(-c4cnn5cccnc45)cc31)OCCN2 [Example 84, N-(1-(6-methoxy-3,4-dihydro-2H-benzo[b][1,4]oxazin-7-yl)-6-(pyrazolo[1,5-a]pyrimidin-3-yl)-1H-pyrazolo[4,3-c]pyridin-3-yl)-1-methylpiperidine-4-carboxamide] | 0.00501 to 0.0501
17 | COc1cc2c(cc1-n1nc(C(=O)NCCCN(C)C)c3cnc(-c4cnn5cccnc45)cc31)OCCN2 [Example 43, N-(3-(dimethylamino)propyl)-1-(6-methoxy-3,4-dihydro-2H-benzo[b][1,4]oxazin-7-yl)-6-(pyrazolo[1,5-a]pyrimidin-3-yl)-1H-pyrazolo[4,3-c]pyridine-3-carboxamide] | 0.00501 to 0.0501
18 | COc1cc2c(cc1-n1nc(C(=O)NCCCN(C)C)c3cnc(-c4cnn5cccnc45)cc31)SCCN2 [Example 16, N-(3-(dimethylamino)propyl)-1-(6-methoxy-3,4-dihydro-2H-benzo[b][1,4]thiazin-7-yl)-6-(pyrazolo[1,5-a]pyrimidin-3-yl)-1H-pyrazolo[4,3-c]pyridine-3-carboxamide] | < 0.00501
19 | COc1cc2c(cc1-n1nc(C(=O)NC3CN(C)C3)c3cnc(-c4cnn5cccnc45)cc31)OCCN2 [Example 44, 1-(6-methoxy-3,4-dihydro-2H-benzo[b][1,4]oxazin-7-yl)-N-(1-methylazetidin-3-yl)-6-(pyrazolo[1,5-a]pyrimidin-3-yl)-1H-pyrazolo[4,3-c]pyridine-3-carboxamide] | 0.00501 to 0.0501
20 | COc1cc2c(cc1-n1nc(NC(=O)O[C@H]3CCN(C)C3)c3cnc(-c4cnn5cccnc45)cc31)SCCN2 [Example 33, (S)-1-methylpyrrolidin-3-yl (1-(6-methoxy-3,4-dihydro-2H-benzo[b][1,4]thiazin-7-yl)-6-(pyrazolo[1,5-a]pyrimidin-3-yl)-1H-pyrazolo[4,3-c]pyridin-3-yl)carbamate] | 0.00501 to 0.0501
21 | COc1cc2c(cc1-n1nc(C(=O)NC3CN(C)C3)c3cnc(-c4cnn5cccnc45)cc31)SCCN2 [Example 17, 1-(6-methoxy-3,4-dihydro-2H-benzo[b][1,4]thiazin-7-yl)-N-(1-methylazetidin-3-yl)-6-(pyrazolo[1,5-a]pyrimidin-3-yl)-1H-pyrazolo[4,3-c]pyridine-3-carboxamide] | 0.00501 to 0.0501
22 | COc1cc2[nH]c(=O)oc2cc1-n1nc(NCCN2CCOCC2)c2cnc(-c3cnn4cccnc34)cc21 [Example 72, 5-methoxy-6-(3-((2-morpholinoethyl)amino)-6-(pyrazolo[1,5-a]pyrimidin-3-yl)-1H-pyrazolo[4,3-c]pyridin-1-yl)benzo[d]oxazol-2(3H)-one] | 0.0501 to 0.501
23 | COc1cc2c(cc1-n1nc(NC(=O)OCCN3CCOCC3)c3cnc(-c4cnn5cccnc45)cc31)SCCN2 [Example 29, 2-morpholinoethyl (1-(6-methoxy-3,4-dihydro-2H-benzo[b][1,4]thiazin-7-yl)-6-(pyrazolo[1,5-a]pyrimidin-3-yl)-1H-pyrazolo[4,3-c]pyridin-3-yl)carbamate] | < 0.00501
24 | COc1cc2c(cc1-n1nc(NCCN(C)C)c3cnc(Nc4ncc[nH]c4=O)cc31)OCCN2 [Example 74, 3-((3-((2-(dimethylamino)ethyl)amino)-1-(6-methoxy-3,4-dihydro-2H-benzo[b][1,4]oxazin-7-yl)-1H-pyrazolo[4,3-c]pyridin-6-yl)amino)pyrazin-2(1H)-one] | 0.0501 to 0.501
25 | COc1cc2c(cc1-n1nc(C(=O)NCCN3CC(=O)OC(C)C3)c3cnc(-c4cnn5cccnc45)cc31)OCCN2 (centres unmarked) [Example 83, 1-(6-methoxy-3,4-dihydro-2H-benzo[b][1,4]oxazin-7-yl)-N-(2-(2-methyl-6-oxomorpholino)ethyl)-6-(pyrazolo[1,5-a]pyrimidin-3-yl)-1H-pyrazolo[4,3-c]pyridine-3-carboxamide] | 0.0501 to 0.501
26 | COc1cc2c(cc1-n1nc(NC(=O)OCCN(C)C)c3cnc(-c4cnn5cccnc45)cc31)OCCN2 [Example 57, 2-(dimethylamino)ethyl (1-(6-methoxy-3,4-dihydro-2H-benzo[b][1,4]oxazin-7-yl)-6-(pyrazolo[1,5-a]pyrimidin-3-yl)-1H-pyrazolo[4,3-c]pyridin-3-yl)carbamate] | 0.00501 to 0.0501
